Laboratory results published in patent US20220380374A1, “1,4-DIHYDROBENZO[D]PYRAZOLO[3,4-F][1,3]DIAZEPINE DERIVATIVES AND RELATED COMPOUNDS AS LRRK2, NUAK1 AND/OR TYK2 KINASE MODULATORS FOR THE TREATMENT OF E.G. AUTOIMMUNE DISEASE” (Origenis GMBH, priority 2019, published 2022).

How the values were obtained:
[1] = molecular target: T1, wt human TYK2, catalytic site (Homo sapiens, UniProt P29597); test: HTRF KinEASE assay, TYK2; assay type: biochemical; conditions: 1 μM ATP; read-out: IC50, inhibitory activity toward TYK2
T1 construct: 2 nM wt human TYK2, catalytic site (SignalChem/CAN); purchased SignalChem/CAN
T1 sequence (P29597 897-1176 limits assumed): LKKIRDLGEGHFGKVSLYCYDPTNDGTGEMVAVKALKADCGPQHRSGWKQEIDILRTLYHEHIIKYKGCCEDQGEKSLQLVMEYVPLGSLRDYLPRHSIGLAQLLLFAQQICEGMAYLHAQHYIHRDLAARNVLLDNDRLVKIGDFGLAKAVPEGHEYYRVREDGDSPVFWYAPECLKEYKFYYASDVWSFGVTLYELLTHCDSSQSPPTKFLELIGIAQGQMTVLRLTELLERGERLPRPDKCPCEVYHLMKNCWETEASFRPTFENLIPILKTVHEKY
Procedure: Basic protocol for HTRF KinEASE assay (Cisbio/FRA) inhibitor studies involved two steps: Enzymatic step: Addition of 4 μl of test compound in corresponding DMSO dilutions, 4 μl of kinase/substrate mixture, 2 μl of ATP into 384 well small volume plates. Incubation for at least 30 minutes at room temperature.
Detection step: Addition of 5 μl antibody and 5 μl streptavidin-XL665, read plate after 60 minutes. Data analysis of emission ratios according to KinEASE assay protocol.
Kinase and assay components were adjusted to final concentrations according to the kit protocol. For TYK2: 2 nM wt human TYK2, catalytic site (SignalChem/CAN), 1 μM HTRF KinEASE-TK Substrate-biotin, 1 μM ATP in 1× Kinase Buffer

[2] = molecular target: T2, wt human NUAK1, full length (Homo sapiens, UniProt O60285); test: TR-FRET LanthaScreen Eu Kinase Binding Assay, NUAK1; conditions: 5 nM Kinase Tracer 236; read-out: IC50, inhibitory activity toward NUAK1
T2 construct: 8 nM wt human NUAK1, full length (ThermoFisher/USA); purchased ThermoFisher/USA
T2 sequence (O60285 1-661): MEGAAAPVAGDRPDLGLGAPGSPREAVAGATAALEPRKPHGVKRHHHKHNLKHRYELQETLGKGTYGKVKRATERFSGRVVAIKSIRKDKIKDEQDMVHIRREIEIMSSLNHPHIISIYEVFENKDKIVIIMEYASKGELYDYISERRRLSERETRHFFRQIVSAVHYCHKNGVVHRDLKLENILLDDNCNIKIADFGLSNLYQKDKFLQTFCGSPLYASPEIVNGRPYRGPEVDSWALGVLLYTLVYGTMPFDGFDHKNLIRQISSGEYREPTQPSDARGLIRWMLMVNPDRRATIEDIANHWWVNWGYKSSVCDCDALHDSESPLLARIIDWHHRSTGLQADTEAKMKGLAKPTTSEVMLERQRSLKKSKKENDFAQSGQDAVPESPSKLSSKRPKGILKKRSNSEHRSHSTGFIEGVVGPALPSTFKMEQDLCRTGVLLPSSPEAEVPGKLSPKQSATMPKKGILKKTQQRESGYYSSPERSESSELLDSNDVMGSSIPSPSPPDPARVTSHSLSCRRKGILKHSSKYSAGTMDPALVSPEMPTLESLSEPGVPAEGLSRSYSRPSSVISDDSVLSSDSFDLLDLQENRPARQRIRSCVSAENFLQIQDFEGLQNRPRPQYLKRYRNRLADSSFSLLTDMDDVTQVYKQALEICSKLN
How it was run: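 TR-FRET tracer-displacement binding with 8 nM full-length wild-type human NUAK1, 2 nM Eu-anti-His antibody and 5 nM Kinase Tracer 236 in 1× Kinase Buffer A (final). Compound, kinase/antibody and tracer incubated 1 h at room temperature; emission ratios analysed per kit protocol.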

Compound | IC50 [1] | IC50 [2]
Fc1cccc(F)c1C1=Nc2ccccc2-c2[nH]nc(Cl)c2N1 [Compound 135, 3-chloro-5-(2,6-difluorophenyl)-1,4-dihydrobenzo[d]pyrazolo[3,4-f][1,3]diazepine] | 0.01 to 0.1 µM | 0.01 to 0.1 µM
CSc1n[nH]c2c1NC(c1c(F)cccc1F)=Nc1ccccc1-2 [Compound 146, 5-(2,6-difluorophenyl)-3-(methylthio)-1,4-dihydrobenzo[d]pyrazolo [3,4-f][1,3]diazepine] | 0.1 to 1 µM | 0.1 to 1 µM
OCCNc1cc(F)c(C2=Nc3c[nH]nc3-c3ccccc3N2)c(F)c1 [Compound 150, 2-((4-(2,6-dihydrobenzo[d]pyrazolo[3,4-f][1,3]diazepin-5-yl)-3,5-difluorophenyl)amino)ethan-1-ol] | 0.1 to 1 µM | 0.1 to 1 µM
Fc1cccc(Cl)c1C1=Nc2cc(OC3CCOCC3)ccc2-c2[nH]ncc2N1 [Compound 155, 5-(2-chloro-6-fluorophenyl)-8-((tetrahydro-2H-pyran-4-yl)oxy)-1,4-dihydrobenzo[d]pyrazolo[3,4-f][1,3]diazepine] | 0.01 to 0.1 µM | 0.01 to 0.1 µM
Cc1cc2c(cc1C(=O)O)NC(c1c(F)cccc1F)=Nc1cn[nH]c1-2 [Compound 156, 5-(2,6-difluorophenyl)-9-methyl-1,6-dihydrobenzo[d]pyrazolo[3,4-f][1,3]diazepine-8-carboxylic acid] | 0.01 to 0.1 µM | 0.1 to 1 µM
Cc1cc2c(cc1C(=O)NC1CCOCC1)N=C(c1c(F)cccc1F)Nc1cn[nH]c1-2 [Compound 157, 5-(2,6-difluorophenyl)-9-methyl-N-(tetrahydro-2H-pyran-4-yl)-1,4-dihydrobenzo[d]pyrazolo[3,4-f][1,3]diazepine-8-carboxamide] | < 0.01 µM | 0.1 to 1 µM
COc1ccc2c(c1)N=C(c1c(F)cccc1Cl)Nc1cn[nH]c1-2 [Compound 158, 5-(2-chloro-6-fluorophenyl)-8-methoxy-1,4-dihydrobenzo[d]pyrazolo[3,4-f][1,3]diazepine] | 0.01 to 0.1 µM | 0.01 to 0.1 µM
Fc1cccc(Cl)c1C1=Nc2cc(-c3ccn[nH]3)ccc2-c2[nH]ncc2N1 [Compound 160, 5-(2-chloro-6-fluorophenyl)-8-(1H-pyrazol-5-yl)-1,4-dihydrobenzo[d]pyrazolo[3,4-f][1,3]diazepine] | 0.01 to 0.1 µM | 0.01 to 0.1 µM
Cc1ccc2c(c1)-c1[nH]ncc1NC(c1c(F)cccc1Br)=N2 [Compound 161, 5-(2-bromo-6-fluorophenyl)-9-methyl-1,4-dihydrobenzo[d]pyrazolo[3,4-f][1,3]diazepine] | 0.1 to 1 µM | 0.01 to 0.1 µM
COC(=O)Nc1ccc2c(c1)N=C(c1c(F)cccc1F)Nc1c[nH]nc1-2 [Compound 164, methyl(5-(2,6-difluorophenyl)-2,4-dihydrobenzo[d]pyrazolo[3,4-f][1,3]diazepin-8-yl)carbamate] | 0.01 to 0.1 µM | 0.01 to 0.1 µM
Fc1cccc(F)c1C1=Nc2c(Cl)n[nH]c2-c2cc(Cl)ncc2N1 [Compound 171, 3,9-dichloro-5-(2,6-difluorophenyl)-1,6-dihydropyrazolo[4,3-d]pyrido[4,3-f][1,3]diazepine] | 0.01 to 0.1 µM | 0.01 to 0.1 µM
Cc1ccc2c(c1)-c1[nH]ncc1NC(c1c(F)ccc(F)c1F)=N2 [Compound 182, 9-methyl-5-(2,3,6-trifluorophenyl)-1,4-dihydrobenzo[d]pyrazolo [3,4-f][1,3]diazepine] | 0.1 to 1 µM | 0.01 to 0.1 µM
Cc1ccc2c(c1)-c1[nH]ncc1NC(c1c(F)ccc(Br)c1Cl)=N2 [Compound 183, 5-(3-bromo-2-chloro-6-fluorophenyl)-9-methyl-1,4-dihydrobenzo [d]pyrazolo[3,4-f][1,3]diazepine] | 0.1 to 1 µM | 0.01 to 0.1 µM

Next, values leading:

IC50 [1] | IC50 [2] | Compound
0.1 to 1 µM | 0.01 to 0.1 µM | Cc1cc(F)c2c(c1)-c1[nH]ncc1NC(c1c(F)cccc1F)=N2 [Compound 138, 5-(2,6-difluorophenyl)-7-fluoro-9-methyl-1,4-dihydrobenzo [d]pyrazolo[3,4-f][1,3]diazepine]
0.1 to 1 µM | 0.01 to 0.1 µM | Cc1ccc2c(c1)-c1[nH]nc(Cl)c1NC(c1c(F)cccc1F)=N2 [Compound 143, 3-chloro-5-(2,6-difluorophenyl)-9-methyl-1,4-dihydrobenzo[d]pyrazolo [3,4-f][1,3]diazepine]
0.01 to 0.1 µM | 0.01 to 0.1 µM | Fc1cccc(F)c1C1=Nc2cn[nH]c2-c2cc(Cl)ncc2N1 [Compound 147, 9-chloro-5-(2,6-difluorophenyl)-1,6-dihydropyrazolo[4,3-d]pyrido[4,3-f][1,3]diazepine]
0.1 to 1 µM | 0.1 to 1 µM | Cc1ccc2c(c1)-c1[nH]ncc1NC(c1c(Cl)cccc1Cl)=N2 [Compound 152, 5-(2,6-dichlorophenyl)-9-methyl-1,4-dihydrobenzo[d]pyrazolo[3,4-f][1,3]diazepine]
0.01 to 0.1 µM | 0.01 to 0.1 µM | Fc1cccc(F)c1C1=Nc2cc(-c3ccn[nH]3)ccc2-c2[nH]ncc2N1 [Compound 159, 5-(2,6-difluorophenyl)-8-(1H-pyrazol-5-yl)-1,4-dihydrobenzo[d]pyrazolo[3,4-f][1,3]diazepine]
< 0.01 µM | 0.01 to 0.1 µM | CC(=O)Nc1cccc(-c2ccc3c(c2)N=C(c2c(F)cccc2F)Nc2cn[nH]c2-3)c1 [Compound 162, N-(3-(5-(2,6-difluorophenyl)-1,4-dihydrobenzo[d]pyrazolo[3,4-f][1,3]diazepin-8-yl)phenyl)acetamide]
0.1 to 1 µM | 0.1 to 1 µM | Cc1ccc2c(c1)-c1[nH]ncc1NC(c1c(F)cccc1I)=N2 [Compound 163, 5-(2-fluoro-6-iodophenyl)-9-methyl-1,4-dihydrobenzo[d]pyrazolo[3,4-f][1,3]diazepine]
0.1 to 1 µM | < 0.01 µM | COC(=O)Nc1ccc2c(c1)-c1[nH]ncc1NC(c1c(F)cccc1F)=N2 [Compound 165, methyl(5-(2,6-difluorophenyl)-1,4-dihydrobenzo[d]pyrazolo[3,4-f][1,3]diazepin-9-yl)carbamate]
0.1 to 1 µM | 0.01 to 0.1 µM | Cc1cc(F)c2c(c1)-c1[nH]nc(Cl)c1NC(c1c(F)cccc1F)=N2 [Compound 166, 3-chloro-5-(2,6-difluorophenyl)-7-fluoro-9-methyl-1,4-dihydrobenzo[d]pyrazolo[3,4-f][1,3]diazepine]
0.1 to 1 µM | 0.01 to 0.1 µM | CCc1cc(F)c2c(c1)-c1[nH]nc(Cl)c1NC(c1c(F)cccc1F)=N2 [Compound 168, 3-chloro-5-(2,6-difluorophenyl)-9-ethyl-7-fluoro-1,4-dihydrobenzo[d]pyrazolo[3,4-f][1,3]diazepine]
0.01 to 0.1 µM | 0.01 to 0.1 µM | COc1ccc2c(c1F)N=C(c1c(F)cccc1F)Nc1cn[nH]c1-2 [Compound 169, 5-(2,6-difluorophenyl)-7-fluoro-8-methoxy-1,4-dihydrobenzo[d]pyrazolo[3,4-f][1,3]diazepine]
0.1 to 1 µM | 0.1 to 1 µM | Cc1ccc2c(c1)-c1[nH]ncc1N=C(c1c(C)cccc1F)N2 [Compound 172, 5-(2-fluoro-6-methylphenyl)-9-methyl-1,6-dihydrobenzo[d]pyrazolo[3,4-f][1,3]diazepine]
0.1 to 1 µM | 0.01 to 0.1 µM | Cc1ccc2c(c1)-c1[nH]ncc1NC(c1c(Cl)ccc(Br)c1F)=N2 [Compound 184, 5-(3-bromo-6-chloro-2-fluorophenyl)-9-methyl-1,4-dihydrobenzo [d]pyrazolo[3,4-f][1,3]diazepine]
